Publication PMC10824666 (Nature Cancer, 2023)
Where two headings read alike, the source gives them in different places. Blank lines part the entries; values can stand above or below the molecule they belong to.

Tests used:
Assay in all cases: biochemical
Design in all cases: Eurofins DiscoverX kinase panel, competitive binding assay at 1 uM, percent of DMSO control
Details in all cases: competitive binding, percent of DMSO control
CDK18 = CDK18 (Homo sapiens, UniProt Q07002)
How it was run: (§1)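 Single-point profiling at 1 µM compound in a competition-binding format against 96 kinases, read out as POC relative to control; n = 1.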

MAP2K3 = molecular target: T1, MAP2K3 (Homo sapiens, UniProt P46734)
T1 sequence (P46734 1-347): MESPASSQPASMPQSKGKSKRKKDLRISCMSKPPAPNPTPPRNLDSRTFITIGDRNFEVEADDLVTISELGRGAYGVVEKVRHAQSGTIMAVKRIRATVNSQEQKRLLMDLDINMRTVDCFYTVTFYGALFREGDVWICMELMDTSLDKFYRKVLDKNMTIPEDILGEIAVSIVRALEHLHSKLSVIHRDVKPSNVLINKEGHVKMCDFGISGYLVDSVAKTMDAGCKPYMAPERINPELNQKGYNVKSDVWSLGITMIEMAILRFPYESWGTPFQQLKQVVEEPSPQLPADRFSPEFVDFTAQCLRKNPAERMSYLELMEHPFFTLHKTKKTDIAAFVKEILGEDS
How it was run: as §1

PLK4 = molecular target: T2, PLK4 (Homo sapiens, UniProt O00444)
T2 sequence (O00444 1-970): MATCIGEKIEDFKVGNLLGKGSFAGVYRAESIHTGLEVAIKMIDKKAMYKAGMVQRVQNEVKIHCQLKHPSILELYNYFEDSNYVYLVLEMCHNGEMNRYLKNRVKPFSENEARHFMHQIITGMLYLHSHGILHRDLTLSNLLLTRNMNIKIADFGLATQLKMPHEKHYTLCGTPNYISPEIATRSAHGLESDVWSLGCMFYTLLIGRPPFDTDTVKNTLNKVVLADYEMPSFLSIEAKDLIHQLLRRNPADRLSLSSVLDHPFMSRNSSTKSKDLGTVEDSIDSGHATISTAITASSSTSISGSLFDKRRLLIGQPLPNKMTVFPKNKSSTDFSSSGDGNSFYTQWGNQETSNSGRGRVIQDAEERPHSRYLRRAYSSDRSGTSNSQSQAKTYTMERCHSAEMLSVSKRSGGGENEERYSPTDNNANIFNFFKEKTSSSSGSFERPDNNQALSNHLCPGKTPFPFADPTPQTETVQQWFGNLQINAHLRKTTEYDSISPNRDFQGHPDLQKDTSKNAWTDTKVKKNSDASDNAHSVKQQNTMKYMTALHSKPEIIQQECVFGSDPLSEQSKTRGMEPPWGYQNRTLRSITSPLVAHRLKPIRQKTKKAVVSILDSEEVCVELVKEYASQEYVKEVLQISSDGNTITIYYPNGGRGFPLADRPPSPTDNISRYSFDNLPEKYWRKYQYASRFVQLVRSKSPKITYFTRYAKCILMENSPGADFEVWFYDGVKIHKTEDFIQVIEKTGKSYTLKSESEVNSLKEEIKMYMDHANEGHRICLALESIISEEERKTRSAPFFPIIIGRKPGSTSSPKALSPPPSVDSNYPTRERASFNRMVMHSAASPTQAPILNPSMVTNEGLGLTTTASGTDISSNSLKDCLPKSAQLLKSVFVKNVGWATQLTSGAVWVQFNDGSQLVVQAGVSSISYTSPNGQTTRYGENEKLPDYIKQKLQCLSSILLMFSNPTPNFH
How it was run: as §1

ROCK 2 = molecular target: T3, ROCK 2 (Homo sapiens, UniProt O75116)
T3 construct: gene ROCK2
T3 sequence (O75116 whole entry): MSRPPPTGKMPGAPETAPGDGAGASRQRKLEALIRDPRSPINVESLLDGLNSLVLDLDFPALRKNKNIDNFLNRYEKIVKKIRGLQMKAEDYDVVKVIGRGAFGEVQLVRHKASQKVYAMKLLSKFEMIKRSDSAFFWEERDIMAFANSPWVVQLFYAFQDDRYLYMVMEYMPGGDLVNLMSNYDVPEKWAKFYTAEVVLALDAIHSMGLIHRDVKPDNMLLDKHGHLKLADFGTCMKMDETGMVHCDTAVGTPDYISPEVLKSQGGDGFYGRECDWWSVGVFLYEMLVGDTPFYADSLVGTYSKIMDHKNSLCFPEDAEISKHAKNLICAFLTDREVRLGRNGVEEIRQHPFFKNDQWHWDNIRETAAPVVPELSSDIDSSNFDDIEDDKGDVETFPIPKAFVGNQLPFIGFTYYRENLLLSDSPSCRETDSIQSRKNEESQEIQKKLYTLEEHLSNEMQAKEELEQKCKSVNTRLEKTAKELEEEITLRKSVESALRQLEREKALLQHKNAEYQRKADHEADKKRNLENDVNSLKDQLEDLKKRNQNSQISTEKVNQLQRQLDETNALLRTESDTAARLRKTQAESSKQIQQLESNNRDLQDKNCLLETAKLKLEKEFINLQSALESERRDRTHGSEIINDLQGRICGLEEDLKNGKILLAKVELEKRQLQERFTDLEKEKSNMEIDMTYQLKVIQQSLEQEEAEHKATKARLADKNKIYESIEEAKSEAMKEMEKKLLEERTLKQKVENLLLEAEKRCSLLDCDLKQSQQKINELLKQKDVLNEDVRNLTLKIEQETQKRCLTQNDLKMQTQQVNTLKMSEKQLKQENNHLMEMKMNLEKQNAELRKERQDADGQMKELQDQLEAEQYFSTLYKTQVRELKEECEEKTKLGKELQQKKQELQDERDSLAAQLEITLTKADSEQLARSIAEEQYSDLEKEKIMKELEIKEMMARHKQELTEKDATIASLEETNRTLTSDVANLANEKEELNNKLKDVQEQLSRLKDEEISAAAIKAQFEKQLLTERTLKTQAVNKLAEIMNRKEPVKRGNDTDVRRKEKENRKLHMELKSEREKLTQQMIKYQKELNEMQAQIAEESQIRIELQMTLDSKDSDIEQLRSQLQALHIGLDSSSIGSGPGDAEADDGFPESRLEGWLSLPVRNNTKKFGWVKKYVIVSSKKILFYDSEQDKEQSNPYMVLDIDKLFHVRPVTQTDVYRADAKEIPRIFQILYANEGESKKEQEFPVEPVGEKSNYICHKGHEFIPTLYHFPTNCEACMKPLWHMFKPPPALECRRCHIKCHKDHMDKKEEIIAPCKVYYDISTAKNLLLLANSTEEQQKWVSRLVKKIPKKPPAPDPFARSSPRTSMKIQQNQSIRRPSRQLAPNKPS
How it was run: as §1

[1] = read-out: Kinome Profiling performed by Eurofins DiscoverX / AM-1882, 1.0 µM / POC
[2] = read-out: Kinome Profiling performed by Eurofins DiscoverX / AM-5308, 1.0 µM / POC
[3] = read-out: Kinome Profiling performed by Eurofins DiscoverX / AM-0277, 1.0 µM / POC

Chain of CDK18 (Q07002 whole entry): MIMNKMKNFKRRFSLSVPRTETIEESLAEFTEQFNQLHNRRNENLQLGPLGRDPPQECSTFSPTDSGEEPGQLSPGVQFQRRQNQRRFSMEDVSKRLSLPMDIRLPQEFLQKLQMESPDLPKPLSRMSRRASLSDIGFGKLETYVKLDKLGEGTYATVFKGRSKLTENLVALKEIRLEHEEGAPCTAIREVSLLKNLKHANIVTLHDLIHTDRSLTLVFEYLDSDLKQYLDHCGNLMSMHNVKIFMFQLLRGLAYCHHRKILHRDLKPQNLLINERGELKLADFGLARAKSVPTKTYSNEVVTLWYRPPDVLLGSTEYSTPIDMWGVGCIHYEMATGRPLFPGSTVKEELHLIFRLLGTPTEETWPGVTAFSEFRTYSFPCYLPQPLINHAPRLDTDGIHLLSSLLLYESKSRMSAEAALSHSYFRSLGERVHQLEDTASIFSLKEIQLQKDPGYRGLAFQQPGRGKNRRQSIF

- remaining activity at 1 µM (CDK18; [1]): 76%
- remaining activity at 1 µM (MAP2K3; [1]): 67%
- remaining activity at 1 µM (PLK4; [1]): 93.5%
- remaining activity at 1 µM (ROCK 2; [1]): 77%
Compound: CC(C)(C)NS(=O)(=O)c1cccc(NC(=O)c2ccc(S(=O)(=O)NC(C)(C)C)cc2N2CCC3(CC2)CC3)c1 [AM-1882]

- remaining activity at 1 µM (CDK18; [2]): 94%
- remaining activity at 1 µM (MAP2K3; [2]): 88.5%
- remaining activity at 1 µM (PLK4; [2]): 87.5%
- remaining activity at 1 µM (ROCK 2; [2]): 97.5%
Compound: C[C@@H]1CN(c2cccc(NC(=O)c3ccc(NS(=O)(=O)CCO)cc3N3CCC4(CC3)CC4)n2)CCO1 [AM-5308]

- remaining activity at 1 µM (CDK18; [3]): 78%
- remaining activity at 1 µM (MAP2K3; [3]): 96%
- remaining activity at 1 µM (PLK4; [3]): 100%
- remaining activity at 1 µM (ROCK 2; [3]): 100%
Compound: CC(C)(CO)Nc1ccc(C(=O)Nc2cccc(S(=O)(=O)C3CCCC3)c2)c(N2CCC3(CC2)CC3)n1 [AM-0277]
